According to patent US20250257331A1, “FLAVONOID GLYCOSIDE GLYCOSYLTRANSFERASE LbUGT71BX1 IN LAPORTEA BULBIFERA AS WELL AS THE CODING GENE AND THE USE THEREOF” (INSTITUTE OF CHINESE MATERIA MEDICA CHINA ACADEMY OF …, priority 2024, published 2025):
Entries after “also recorded” stand apart in the source; their conditions may differ.

Tested on: glycosyltransferase LbUGT71BX1
Experiment: in-vitro enzyme activity testing of recombinant LbUGT71BX1 with flavonoid substrates and UDP-sugar donors (LC-Q-TOF-MS)
Assay type: biochemical, Laportea bulbifera
Conditions: purified recombinant enzyme, 37° C., 1 hour, Tris-HCl pH 7.5, compared with pMAL-c2X empty control
Method: The in-vitro enzyme activity testing steps are as follows: the 50 μL reaction system contained 1 μL flavonoid substrate (40 mM) (kaempferol or myricetin or gossypetin or quercetagetin), 1 μL UDP-sugar donor (100 mM) (UDP-galactose or UDP-glucose) and […] purified enzyme, and Tris-HCl buffer (pH 7.5) was used to complement the system. With the pMAL-c2X empty crude enzyme catalytic system as a negative control, place the reaction system at 37° C. for 1 hour, and add the same volume of methanol to stop the reaction. Concentrate the above mixture in vacuo and reconstitute it with 100 μL of methanol. Perform filtration using a 0.22 m microporous membrane and transfer the sample to a liquid vial for assay. Use the Agilent 1290 Infinity II-6430 Q-TOF to test the sample. The specific liquid conditions are as follows: (1) Column: ACQUITY UPLC BEH C18 1.7 m 2.1×100 mm; (2) Mobile phase: 0.1% pure water for phase A and chromatographic acetonitrile for phase B; (3) Flow rate: 0.3 mL/min; (4) Column temperature: 40° C.; (5) Injection volume: 1.0 μL; (6) Elution conditions are shown in Table 6. The mass spectrometry conditions are: the ion mode is negative ion, the scan range is 100-3000; the mode is Automated MS/MS; the ion fragment collision energy is 20 V; the source temperature is 350° C.; the nebulizer pressure is set to 30 psi.

Row | product generated from the flavonoid substrate by LbUGT71BX1 (UDP-galactose as sugar donor) | SMILES | product generated from the flavonoid substrate by LbUGT71BX1 (UDP-glucose as sugar donor)
1 | myricetin-3-O-galactoside | O=c1c(O)c(-c2cc(O)c(O)c(O)c2)oc2cc(O)cc(O)c12 [myricetin] | myricetin-3-O-glucoside; also recorded: myricetin-7-O-glucoside
2 | kaempferol-3-O-galactoside | O=c1c(O)c(-c2ccc(O)cc2)oc2cc(O)cc(O)c12 [kaempferol] | kaempferol-3-O-glucoside
3 | – | O=c1c(O)c(-c2ccc(O)c(O)c2)oc2c(O)c(O)cc(O)c12 [gossypetin] | gossypetin-3-O-glucoside
